Source: PubChem BioAssay (NCI)
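Test compounds were applied to cells in 96-well plates for 48 hours at 5 doses. Definition used: TGI = concentration required for complete inhibition of growth.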

Legend:
Experiment in all cases: growth of human tumour cells (NCI), 48 h
[1] = test system: EKVX NSCLC
[2] = test system: NCI/ADR-RES ovarian
[3] = test system: MALME-3M melanoma
[4] = test system: T-47D breast
[5] = test system: ACHN renal
[6] = test system: UACC-62 melanoma
[7] = test system: SN12C renal
[8] = test system: KM12 colon
[9] = test system: IGROV1 ovarian
[10] = test system: BT-549 breast
[11] = test system: COLO 205 colon
[12] = test system: SNB-75 CNS
[13] = test system: NCI-H23 lung
[14] = test system: U251 CNS
[15] = test system: CAKI-1 renal
[16] = test system: 786-0 renal
[17] = test system: HOP-92 NSCLC
[18] = test system: HS 578T breast
[19] = test system: DU-145 prostate
[20] = test system: MDA-MB-435
[21] = test system: MOLT-4 leukemia
[22] = test system: SF-539 CNS
[23] = test system: MDA-MB-231 breast
[24] = test system: K-562 leukemia
[25] = test system: OVCAR-5 ovarian
[26] = test system: CCRF-CEM leukemia
[27] = test system: OVCAR-8 ovarian
[28] = test system: SF-295 CNS
[29] = test system: NCI-H460 lung
[30] = test system: MCF7 breast
[31] = test system: HCT-15 colon
[32] = test system: SK-MEL-2 melanoma
[33] = test system: SF-268 CNS
[34] = test system: A549 NSCLC
[35] = test system: SK-OV-3 ovarian
[36] = test system: UACC-257 melanoma
[37] = test system: TK-10 renal
[38] = test system: MDA-N
[39] = test system: RXF 393 renal
[40] = test system: RPMI-8226 leukemia
[41] = test system: PC-3 prostate
[42] = test system: SW-620 colon
[43] = test system: NCI-H226 lung
[44] = test system: SK-MEL-5 melanoma
[45] = test system: SR leukemia
[46] = test system: M14 melanoma
[47] = test system: OVCAR-4 ovarian
[48] = test system: HT29 colon
[49] = test system: HCT-116 colon
[50] = test system: NCI-H522 lung
[51] = test system: HCC-2998 colon
[52] = test system: OVCAR-3 ovarian
[53] = test system: LOX IMVI melanoma
[54] = test system: A498 renal
[55] = test system: UO-31 renal
[56] = test system: SK-MEL-28 melanoma
[57] = test system: SNB-19 CNS
[58] = test system: HOP-62 NSCLC

COC(CNC(=O)C(C)NC(=O)C(C)NC(=O)c1ccccc1)OC (stereo not given)
TGI [1]: > 100 µM
TGI [2]: > 100 µM
TGI [3]: > 100 µM
TGI [4]: > 100 µM
TGI [5]: > 100 µM
TGI [6]: > 100 µM
TGI [7]: > 100 µM
TGI [8]: > 100 µM
TGI [9]: > 100 µM
TGI [10]: > 100 µM
TGI [11]: > 100 µM
TGI [12]: > 100 µM
TGI [13]: > 100 µM
TGI [14]: > 100 µM
TGI [15]: > 100 µM
TGI [16]: > 100 µM
TGI [17]: > 100 µM
TGI [18]: > 100 µM
TGI [19]: > 100 µM
TGI [20]: > 100 µM
TGI [21]: > 100 µM
TGI [22]: > 100 µM
TGI [23]: > 100 µM
TGI [24]: > 100 µM
TGI [25]: > 100 µM
TGI [26]: > 100 µM
TGI [27]: > 100 µM
TGI [28]: > 100 µM
TGI [29]: > 100 µM
TGI [30]: > 100 µM
TGI [31]: > 100 µM
TGI [32]: > 100 µM
TGI [33]: > 100 µM
TGI [34]: > 100 µM
TGI [35]: > 100 µM
TGI [36]: > 100 µM
TGI [37]: > 100 µM
TGI [38]: > 100 µM
TGI [39]: > 100 µM
TGI [40]: > 100 µM
TGI [41]: > 100 µM
TGI [42]: > 100 µM
TGI [43]: > 100 µM
TGI [44]: > 100 µM
TGI [45]: > 100 µM
TGI [46]: > 100 µM
TGI [47]: > 100 µM
TGI [48]: > 100 µM
TGI [49]: > 100 µM
TGI [50]: > 100 µM

C=CC1=C(C)C2=NC1=CC1=NC(=C(CC)/C1=C/O)C=C1C=C3C(=O)C(C(=O)OC)C(=C4NC(=C2)C(C)C4CCC(=O)OC/C=C(\C)CCCC(C)CCCC(C)CCCC(C)C)C3=N1 (stereo not given) (tested in a mixture with another compound)
TGI [1]: > 100 µM
TGI [2]: > 100 µM
TGI [4]: > 100 µM
TGI [5]: > 100 µM
TGI [6]: > 100 µM
TGI [7]: > 100 µM
TGI [8]: > 100 µM
TGI [9]: > 100 µM
TGI [10]: > 100 µM
TGI [11]: > 100 µM
TGI [12]: > 100 µM
TGI [51]: > 100 µM
TGI [13]: > 100 µM
TGI [14]: > 100 µM
TGI [52]: > 100 µM
TGI [15]: > 100 µM
TGI [16]: > 100 µM
TGI [17]: > 100 µM
TGI [53]: > 100 µM
TGI [18]: > 100 µM
TGI [19]: > 100 µM
TGI [20]: > 100 µM
TGI [21]: > 100 µM
TGI [22]: > 100 µM
TGI [23]: > 100 µM
TGI [24]: > 100 µM
TGI [25]: > 100 µM
TGI [54]: > 100 µM
TGI [27]: > 100 µM
TGI [28]: > 100 µM
TGI [29]: > 100 µM
TGI [30]: > 100 µM
TGI [31]: > 100 µM
TGI [32]: > 100 µM
TGI [55]: > 100 µM
TGI [33]: > 100 µM
TGI [34]: > 100 µM
TGI [35]: > 100 µM
TGI [36]: > 100 µM
TGI [56]: > 100 µM
TGI [37]: > 100 µM
TGI [38]: > 100 µM
TGI [57]: > 100 µM
TGI [40]: > 100 µM
TGI [41]: > 100 µM
TGI [42]: > 100 µM
TGI [43]: > 100 µM
TGI [44]: > 100 µM
TGI [58]: > 100 µM
TGI [45]: > 100 µM
TGI [46]: > 100 µM
TGI [47]: > 100 µM
TGI [48]: > 100 µM
TGI [49]: > 100 µM
TGI [50]: 73 µM
